US7495127B2, “Potassium channel opener” (Mitsubishi Tanabe Pharma Corporation, priority 2001, dated 2009)

Legend:
[1] = target: T1, BKαβ1 (Rattus norvegicus, UniProt Q62976); assay: Whole-cell current recording (whole-cell patch clamp), HEK293 constantly expressing rat BKα+β1; assay type: cell-based; conditions: pCa 6.5, depolarization −60 mV to +10 mV
T1 construct: expressed in transfected cells; host or cells: HEK293
Description: According to the whole-cell patch clamp technique, whole-cell currents were recorded on HEK293 cell, in which rat BKα+β1 subunits were constantly expressed. All the experiments were carried out at 22-24° C.
Pipette solution (mM) 140 KCl, 4 MgCl2, 5 ATP, 10 HEPES, 5 EGTA (the pCa was adjusted to 6.5 by adding a suitable amount of CaCl2 to stabilize the pCa). The pH was adjusted to 7.2 with KOH.
Extracellular fluid (mM) 137 NaCl, 5.9 KCl, 2.2 CaCl2, 1.2 MgCl2, 14 Glucose, 10 HEPES. The pH was adjusted to 7.4 with NaOH.
(§1) Since the test compounds were highly aliphatic, and hard to dissolve in water, they were dissolved by DMSO and preserved as 30 mM stock solutions. On administration, final concentration in the DMSO solutions were made at most 0.03%. Incidentally, DMSO was confirmed not to have any influence on BK currents, when its concentration is 0.3% or less.
The whole-cell currents were recorded with the cells in which BK(α+β1) channels were constantly expressed, by the whole-cell patch clamp technique. The Ca^2+ concentration in the intracellular fluid was fixed at pCa 6.5 with Ca^2+-EGTA buffer. The pulse depolarizing from the resting potential −60 mV to +10 mV, was added for 150 mseconds, and the elicited currents were observed. By the depolarizing stimulus, moderately activated outward currents were observed, which are characteristic of BK(α+β1) channel (control in FIG. 4B). After establishing the whole cell, the recording was started at a point where stable current measurements were obtained for 20 minutes. […] After that, by washout, the current went back almost to the level prior to application of the test compounds (FIG. 4A). As a result of a statistical analysis based on the recordings of the 4 examples, the currents were activated by 1.90±0.21 times at concentration of 100 nM, 2.54±0.14 times at 300 nM, and 6.37±0.91 times at 1 μm, by this activating effect.

[2] = target: T1, BKαβ1; assay: Single-channel recording (inside-out patch clamp), HEK293 constantly expressing rat BKα+β1; assay type: cell-based; conditions: pCa 7.0, +40 mV
Description: According to the inside-out patch clamp technique, a single channel current was recorded on HEK293, in which rat BKα+β1 subunits were constantly expressed. All the experiments were carried out at 22-24° C.
Intracellular fluid (mM) 140 KCl, 1.2 MgCl2, 14 Glucose, 5 EGTA (the pCa was adjusted to 7 by adding a suitable amount of CaCl2 to stabilize the pCa). The pH was adjusted to 7.2 with NaOH.
Extracellular fluid (mM) 140 KCl, 4 MgCl2, 5 ATP, 10 HEPES, 0.05 EGTA. The pH was adjusted to 7.2 with KOH.
as §1
In order to further confirm this point, a single channel current recording was carried out. The single channel current was recorded with respect to the cells in which BK(α+β1) channels were constantly expressed, by the inside-out patch clamp technique. The intracellular fluid (the fluid contacting the inner side of the cell membrane) was fixed at pCa 7.0. […] From these histograms, channel opening probability was calculated to show relation between the concentration and effect as shown in FIG. 5C.

[3] = target: T1, BKαβ1; assay: Concentration-dependent block of macroscopic currents by ChTX in HEKBKαβ1, in the absence and presence of pimaric acid; assay type: cell-based
Excerpt: The outward currents elicited by depolarization from −60 mV in 10 mV steps were enhanced at potentials positive to −20 mV. The current at +40 mV was increased from 1214±153 to 2527±448 pA (n=5, p<0.05). […] The currents at +40 mV in the presence of 10 μm pimaric acid was reduced from 2527±448 pA to 499±90 pA (p<0.01 versus before the application of and in the presence of 10 μm pimaric acid). […] The normalized data were well fitted with the Hill equation modified for the concentration-response relationship. […] The relationship in the presence of 10 μm pimaric acid was almost identical with that in its absence.

[4] = target: T1, BKαβ1; assay: BK channel currents in single HEK293 cell expressing BK(α+β1) channels (HEKBKαβ1) under whole-cell voltage clamp; assay type: cell-based; conditions: 1 to 10 μm; pCa 6.5
Excerpt: (§2) Effects of test compounds on BK channel currents were examined in single HEK293 cell expressing BK(α+β1) channels (hereinafter referred to as HEKBKαβ1) under whole-cell voltage clamp. The Ca^2+ concentration in the pipette solution was fixed at pCa 6.5 using a Ca^2+-EGTA buffer. Depolarization from −60 mV to +30 mV induced outward currents in both native HEK293 and HEKBKαβ1, but the current density was much higher in the latter (the current density at the peak: 11.0±1.8 and 95.2±20.9 pA/pF, n=5 and 6, respectively, p<0.05). […] This enhancement of outward current by pimaric acid could be removed completely by washout. Effects of other test compounds were also examined in this manner. The peak amplitude of outward current at +40 mV in the presence of 1, 3, and 10 μm resin acids was measured relative to the value taken just before the application (FIG. 6B).

[5] = target: T2, BKα (Rattus norvegicus, UniProt Q62976); assay: Membrane current recording by whole cell voltage-clamp, HEK293 cell expressing BKα channels; assay type: cell-based
T2 construct: expressed in transfected cells; host or cells: HEK293
Excerpt: (§3) Calcium-activated potassium channel (hereinafter abbreviated as “BK channel” in Examples) functions with two kinds of proteins α (BKα) and β (BKβ) subunits being arranged in tetramers. BKα consists a main part of a channel and BKβ is an activity regulating factor. […] In accordance with a method of Ahring, et al. (Ahring P. K., et al., FEBS Lett., 415, pp. 67-70, 1997), cDNAs of BKα and BKβ1 genes derived from rat uterus smooth muscle (GenBank accession numbers; U55995 and AF020712) were introduced into HEK293 cells by using calcium phosphate coprecipitation transfection techniques, to constantly overexpress BKα or BKαβ.
(b) Membrane Current Recording by Whole Cell Voltage-Clamp Technique
Membrane current of the whole cell by opening of BKα channels was recorded by Whole cell voltage-clamp technique. This technique is frequently employed to analyze the functions shown by the ion channels expressed in numbers on a cell membrane as a whole, and is a well established technique (Hamil, O. P. the above mentioned reference).

[6] = target: T2, BKα; assay: Single channel current recording by inside-out patch clamp, BKα expressed on HEK293 cells; assay type: cell-based
Excerpt: as §3
(a) Single Channel Current Recording by Inside-Out Patch Clamp Technique
By using Inside-out patch clamp technique, fragments of cell membrane containing the channels were isolated, and by artificially controlling an environment of inside of the cell membrane, opening or closing of a single channel can be directly observed. This is a fully established method not only for functional analysis of the channel, but also for testing quantitative effects of the channel agonists (Hamil, O. P., et al., Pflgers Archiv., 391, pp. 85-100, 1981).
Under this condition, action and effect of pimaric acid for BKα was measured.
In Current Amplitude, 0 pA means a closing state. […] In FIG. 3, a relation between a concentration of pimaric acid and an effect of BK channel activation is shown under this condition. By addition of pimaric acid at concentration of 3 μm or more, a significant increase in channel opening probability was confirmed.

[7] = test system: native HEK293; assay: Outward currents in native HEK293 under whole-cell voltage clamp; assay type: cell-based, human; conditions: 1 to 10 μm; pCa 6.5
Excerpt: as §2

T2 sequence (Q62976 whole entry): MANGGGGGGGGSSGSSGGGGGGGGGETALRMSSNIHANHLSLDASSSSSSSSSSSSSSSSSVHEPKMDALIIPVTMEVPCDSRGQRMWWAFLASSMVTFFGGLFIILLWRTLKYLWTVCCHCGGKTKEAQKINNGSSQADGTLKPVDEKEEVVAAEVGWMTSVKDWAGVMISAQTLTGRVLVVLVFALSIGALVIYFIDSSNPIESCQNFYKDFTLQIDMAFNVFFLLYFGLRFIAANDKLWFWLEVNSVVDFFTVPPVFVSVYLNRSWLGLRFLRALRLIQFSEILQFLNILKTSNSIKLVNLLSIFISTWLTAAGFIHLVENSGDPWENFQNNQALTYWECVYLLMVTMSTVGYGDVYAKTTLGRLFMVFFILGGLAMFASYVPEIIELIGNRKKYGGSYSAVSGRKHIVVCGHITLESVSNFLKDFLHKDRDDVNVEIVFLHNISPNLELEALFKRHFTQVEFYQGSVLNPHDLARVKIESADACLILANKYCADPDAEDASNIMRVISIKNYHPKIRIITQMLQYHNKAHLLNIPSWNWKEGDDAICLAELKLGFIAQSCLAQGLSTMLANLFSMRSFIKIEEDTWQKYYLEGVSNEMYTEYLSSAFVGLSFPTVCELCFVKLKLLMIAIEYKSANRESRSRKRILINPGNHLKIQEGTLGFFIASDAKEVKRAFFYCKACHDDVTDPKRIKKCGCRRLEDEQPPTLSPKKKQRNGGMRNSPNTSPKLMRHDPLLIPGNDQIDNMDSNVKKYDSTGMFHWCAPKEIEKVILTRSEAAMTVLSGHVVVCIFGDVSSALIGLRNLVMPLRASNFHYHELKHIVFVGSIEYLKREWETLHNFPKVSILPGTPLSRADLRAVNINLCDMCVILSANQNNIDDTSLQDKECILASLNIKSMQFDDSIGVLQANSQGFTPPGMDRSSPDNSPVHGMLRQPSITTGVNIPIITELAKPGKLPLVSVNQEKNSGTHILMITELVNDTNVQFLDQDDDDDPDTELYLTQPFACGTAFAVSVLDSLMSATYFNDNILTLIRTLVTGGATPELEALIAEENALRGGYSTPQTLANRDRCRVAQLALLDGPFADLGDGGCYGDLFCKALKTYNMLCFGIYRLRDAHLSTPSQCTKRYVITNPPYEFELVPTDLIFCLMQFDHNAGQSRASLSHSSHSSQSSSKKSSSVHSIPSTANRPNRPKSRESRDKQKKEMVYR
T1 sequence (Q62976 whole entry): as above
T1 sequence (P97678 whole entry partner): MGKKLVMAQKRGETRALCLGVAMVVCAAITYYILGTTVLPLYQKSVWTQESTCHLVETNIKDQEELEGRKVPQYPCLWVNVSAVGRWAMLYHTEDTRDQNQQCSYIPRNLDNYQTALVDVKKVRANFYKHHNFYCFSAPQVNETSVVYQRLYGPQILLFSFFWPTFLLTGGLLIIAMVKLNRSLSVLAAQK

Compound: CC(C)c1c(Cl)cc2c(c1Cl)CC[C@H]1[C@](C)(C(=O)O)CCC[C@]21C [dichlorodehydroabietic acid]
- activation of whole-cell current ([1]; 100 nM): 1.90±0.21 times
- activation of whole-cell current ([1]; 300 nM): 2.54±0.14 times
- activation of whole-cell current ([1]; 1 μm): 6.37±0.91 times
- concentration at which channel activation was observed ([2]; applied to inner side of cell membrane): ≥ 100 nM
- relation between concentration and channel opening probability [2]: concentration-dependent

Compound: C=C[C@@]1(C)C=C2CC[C@@H]3[C@](C)(CCC[C@@]3(C)C(=O)O)[C@H]2CC1 [pimaric acid]
- effect on the binding of ChTX to BK channels ([3]; 10 μm pimaric acid): does not affect the binding of ChTX to BK channels
- outward current at +40 mV ([3]; 10 μm pimaric acid, control 1214±153 pA): 2527±448 pA
- outward currents in HEKBKαβ1 [4]: increased outward currents in a dose-dependent fashion
- activation of whole-cell current ([1]; 1 μm): 1.92±0.24 times
- increase of BKα current ([5]; 1 μm added to extracellular fluid, +60 mV): about 50%
- increase of opening probability ([6]; 1 μM, Ca of inner side 0.3 μm, patch membrane potential +40 mV): increased by three times
- time of an opening state (histograms of 30 s current recordings) ([6]; 1 μm or 10 μm, +40 mV, Ca 0.1 μM): increased time of an opening state
- concentration giving a significant increase in channel opening probability ([6]; +40 mV, Ca 0.1 μM): ≥ 3 μm
- channel activity (BKα single channel) ([6]; added to solution of inner side of cell membrane at 10 μm or less, +40 mV, Ca 0.1 μM): significantly increased
- BK channel opening effect relative to NS-1619 ([6]; comparison with known compound): ≥ 10 times
- BK channel opening effect relative to maxikdiol described in the reference ([6]; comparison with literature value): at least three times or more
- outward currents in native HEK293 [7]: did not change

Compound: CC[N+](CC)(CC)CC [tetraethylammonium, reference compound]
- inhibition of the action of pimaric acid on BKα current ([5]; 1 mM tetraethylammonium): completely inhibited

Compound: charybdotoxin [ChTX]
- current amplitude at +40 mV after ChTX ([3]; 100 nM ChTX in the absence of pimaric acid, before 1233±226 pA): 205±46 pA
- outward current at +40 mV after ChTX ([3]; 100 nM ChTX in the presence of 10 μm pimaric acid, before 2527±448 pA): 499±90 pA
- C (constant; native K+ currents insensitive to ChTX) ([3]; absence of pimaric acid): 0.077±0.0226
- nH (Hill coefficient) ([3]; absence of pimaric acid): 0.847±0.034
- C (constant; native K+ currents insensitive to ChTX) ([3]; presence of 10 μm pimaric acid): 0.0965±0.0388
- nH (Hill coefficient) ([3]; presence of 10 μm pimaric acid): 0.982±0.161
